The experiment addresses full-length human BTK (Homo sapiens (Human), UniProt Q06187). The experiment in a line: BTK IC50 enzyme assay (microfluidic off-chip mobility shift kinase assay). It counts as biochemical. Conditions: incubated for 90 min. at 27 C; read-out: Time Dependent BTK Enzyme Assay IC50. The method, then: The following describes a microfluidic, off-chip mobility shift kinase assay used to measure inherent potency of compounds against BTK enzyme. Compounds described by embodiments of the present invention were assayed using this protocol and the data from the same is recorded in Table 2 within the column labeled: “Time Dependent BTK Enzyme Assay IC50”.
Stopped reactions were monitored at −2 PSI, −3000 V/−700 V in a LabChip 3000 plate reader from Caliper Life Sciences, a PerkinElmer Company (Hopkinton, Mass.), and the activity was measured by off-chip mobility shift assay measuring the charge/mass difference between substrate and product resulting from peptide phosphorylation. IC50 and efficacy were determined by plotting log [Inhibitor] vs. % Activity in GeneData Screener (Basel, Switzerland). […] I<1 uM and II>1 uM.

pIC50: −log10 of the molar value. A value given as a limit tells only on which side of the number the result lay.

Chain of full-length human BTK (Q06187 whole entry): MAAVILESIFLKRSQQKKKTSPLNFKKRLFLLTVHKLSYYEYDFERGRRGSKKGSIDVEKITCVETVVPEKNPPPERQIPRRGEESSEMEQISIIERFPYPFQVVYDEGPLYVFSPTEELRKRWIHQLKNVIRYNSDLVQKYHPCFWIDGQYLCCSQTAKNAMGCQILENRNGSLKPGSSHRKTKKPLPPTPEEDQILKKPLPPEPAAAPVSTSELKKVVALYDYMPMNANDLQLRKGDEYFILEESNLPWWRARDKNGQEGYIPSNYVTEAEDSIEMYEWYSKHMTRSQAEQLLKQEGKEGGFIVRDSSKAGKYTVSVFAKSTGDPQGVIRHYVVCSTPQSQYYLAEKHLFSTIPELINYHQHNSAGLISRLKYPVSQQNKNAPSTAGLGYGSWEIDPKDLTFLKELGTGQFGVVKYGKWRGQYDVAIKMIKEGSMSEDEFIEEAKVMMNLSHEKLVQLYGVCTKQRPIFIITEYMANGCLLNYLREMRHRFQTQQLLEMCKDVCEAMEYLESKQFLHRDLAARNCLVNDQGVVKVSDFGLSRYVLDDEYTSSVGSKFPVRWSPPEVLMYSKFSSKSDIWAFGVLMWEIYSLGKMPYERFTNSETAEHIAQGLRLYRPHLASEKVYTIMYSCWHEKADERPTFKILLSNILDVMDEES

On to `C=CC(=O)N1CCC(CN(C)c2nc(C)nc(N)c2-c2ccc(Oc3ccccc3)cc2)CC1` [A44, 1-(4-(((6-amino-2-methyl-5-(4-phenoxyphenyl)pyrimidin-4-yl)(methyl)amino)methyl)piperidin-1-yl)prop-2-en-1-one], for which the pIC50 (as a rule, the negative decadic logarithm of the IC50, by convention in mol/L) is < 6.00.
In the case of `C=CC(=O)Nc1cccc(Oc2ncnc(N)c2-c2ccc(OCc3ccc(OC)cc3)cc2)c1` [A264, N-(3-((6-amino-5-(4-((4-methoxybenzyl)oxy)phenyl)pyrimidin-4-yl)oxy)phenyl)acrylamide] it was > 7.00.
The value for `C#CC(=O)N1CC[C@@H](CNc2ncnc(N)c2-c2cnn(Cc3ccccc3)c2)[C@H](O)C1` [A110, 1-((3S,4S)-4-(((6-amino-5-(1-benzyl-1H-pyrazol-4-yl)pyrimidin-4-yl)amino)methyl)-3-hydroxypiperidin-1-yl)prop-2-yn-1-one] was > 7.00.
Take `CCC(=O)Nc1cccc(-c2c(Oc3ccc(Oc4ccccc4)cc3)ccnc2N)c1` [A310, N-(3-(2-amino-4-(4-phenoxyphenoxy)pyridin-3-yl)phenyl)propionamide]: the pIC50 is < 6.00.
On to `C=CC(=O)N1CCCC(CNc2ncnc(N)c2-c2ccc(Oc3ccccc3)cc2)C1` (stereo not shown) [A286, 1-(3-(((6-amino-5-(4-phenoxyphenyl)pyrimidin-4-yl)amino)methyl)piperidin-1-yl)prop-2-en-1-one], for which the pIC50 was > 6.00.
The value for `Nc1cccc(Oc2ccnc(N)c2-c2ccc(Oc3ccccc3)cc2)c1` [A313, 4-(3-aminophenoxy)-3-(4-phenoxyphenyl)pyridin-2-amine] was < 6.00.
On to `C=CC(=O)N1CCC(CNc2ncnc(N)c2-c2ccc(Oc3ccc(C)cc3)cc2)CC1` [A98], for which the pIC50 is > 7.00.
In the case of `C=CC(=O)N1CC[C@@H](O)[C@H](Nc2ncnc(N)c2-c2ccc(Oc3ccccc3)cc2)C1` (racemic) [A210, 1-((3R,4R)-3-((6-amino-5-(4-phenoxyphenyl)pyrimidin-4-yl)amino)-4-hydroxypiperidin-1-yl)prop-2-en-1-one] it was > 6.00.
`C=CC(=O)N1CC2(CC(Nc3ncnc(N)c3-c3cnn(Cc4ccccc4)c3)C2)C1` [A107, 1-(6-((6-amino-5-(1-benzyl-1H-pyrazol-4-yl)pyrimidin-4-yl)amino)-2-azaspiro[3.3]heptan-2-yl)prop-2-en-1-one]: the pIC50 was > 6.00.
On to `C=CC(=O)N1CC2(CC(Nc3ncnc(N)c3-c3ccc(Oc4ccc(C#N)cc4)cc3)C2)C1` [A207, 4-(4-(4-((2-acryloyl-2-azaspiro[3.3]heptan-6-yl)amino)-6-aminopyrimidin-5-yl)phenoxy)benzonitrile], for which the pIC50 is > 6.00.
For the molecule `C=CC(=O)Nc1cccc(-c2c(Oc3ccc(Oc4ccccc4)cc3)ccnc2N)c1` [A243, N-(3-(2-amino-4-(4-phenoxyphenoxy)pyridin-3-yl)phenyl)acrylamide], the pIC50 was > 7.00.
The value for `CC#CC(=O)[C@H]1CCC[C@H](Nc2ncnc(N)c2-c2ccc(Oc3ccccc3)cc2)C1` [A145, 1-((1S,3S)-3-(6-Amino-5-(4-phenoxyphenyl)-pyrimidin-4-ylamino)-cyclohexyl)-but-2-yn-1-one] was > 7.00; that for `C=CC(=O)N1C2CCC1CC(CNc1ncnc(N)c1-c1cnn(Cc3ccccc3)c1)C2` (stereo not shown) [A209, 1-(3-(((6-amino-5-(1-benzyl-1H-pyrazol-4-yl)pyrimidin-4-yl)amino)methyl)-8-azabicyclo[3.2.1]octan-8-yl)prop-2-en-1-one] was > 6.00; that for `Nc1ncnc(NCC2CCN(C(=O)/C=C/CN3CC(F)C3)CC2)c1-c1ccc(Oc2ccccc2)cc1` [A218, (E)-1-(4-(((6-amino-5-(4-phenoxyphenyl)pyrimidin-4-yl)amino)methyl)piperidin-1-yl)-4-(3-fluoroazetidin-1-yl)but-2-en-1-one] was > 6.00.
Consider `CN(C)C/C=C/C(=O)N1CCC(CNc2ncnc(N)c2-c2ccc(Oc3ccccc3)cc2)(C(=O)O)CC1` [A217, (E)-4-(((6-amino-5-(4-phenoxyphenyl)pyrimidin-4-yl)amino)methyl)-1-(4-(dimethylamino)but-2-enoyl)piperidine-4-carboxylic acid], for which the pIC50 is > 6.00.
In the case of `CN(C)C/C=C/C(=O)N[C@H]1C[C@H](Nc2ncnc(N)c2-c2ccc(Oc3ccccc3)cc2)C1` [A228, (E)-N-(1,3-trans-3-((6-amino-5-(4-phenoxyphenyl)pyrimidin-4-yl)amino)cyclobutyl)-4-(dimethylamino)but-2-enamide] it was > 6.00.
As for `CN(C)C/C=C/C(=O)N[C@@H]1CCC[C@H](Nc2ncnc(N)c2-c2ccc(Oc3ccccc3)cc2)C1` (relative stereo) [A63, (E)-N-(cis-3-((6-amino-5-(4-phenoxyphenyl)pyrimidin-4-yl)amino)cyclohexyl)-4-(dimethylamino)but-2-enamide], the pIC50 was > 6.00.
Consider `CC1=CC(C)=[N+]2C1=Cc1ccc(CCC(=O)N3CCN(C/C=C/C(=O)Nc4cccc(Oc5ncnc(N)c5-c5ccc(Oc6ccccc6)cc5)c4)CC3)n1[B-]2(F)F` [A24, (E)-7-(3-(4-(4-((3-((6-amino-5-(4-phenoxyphenyl)pyrimidin-4-yl)oxy)phenyl)amino)-4-oxobut-2-en-1-yl)piperazin-1-yl)-3-oxopropyl)-5,5-difluoro-1,3-dimethyl-5H-dipyrrolo[1,2-c:2′,1′-f][1,3,2]diazaborinin-4-ium-5-uide], for which the pIC50 was < 6.00.
Take `C#CC(=O)N1CC2(CC(Nc3ncnc(N)c3-c3cnn(Cc4ccccc4)c3)C2)C1` [A111, 1-(6-((6-amino-5-(1-benzyl-1H-pyrazol-4-yl)pyrimidin-4-yl)amino)-2-azaspiro[3.3]heptan-2-yl)prop-2-yn-1-one]: the pIC50 was > 7.00.
The value for `CN(C)C/C=C/C(=O)N1CCC(F)(CNc2ncnc(N)c2-c2ccc(Oc3ccccc3)cc2)CC1` [A227, (E)-1-(4-(((6-amino-5-(4-phenoxyphenyl)pyrimidin-4-yl)amino)methyl)-4-fluoropiperidin-1-yl)-4-(dimethylamino)but-2-en-1-one] was > 7.00.
In the case of `C=CC(=O)N1CCC(CNc2ncnc(N)c2-c2ccc(OCc3ccccc3)cc2)C1` (stereo not shown) [A156, 1-(3-(((6-amino-5-(4-(benzyloxy)phenyl)pyrimidin-4-yl)amino)methyl)pyrrolidin-1-yl)prop-2-en-1-one] it was > 6.00.
For `C=CC(=O)Nc1cccc(Oc2ncnc(N)c2-c2c(F)cc(OCc3ccccc3)cc2F)c1` [A294, N-(3-((6-amino-5-(4-(benzyloxy)-2,6-difluorophenyl)pyrimidin-4-yl)oxy)phenyl)acrylamide], the pIC50 was > 6.00.
In the case of `Nc1ncnc(Oc2cccc(NC(=O)CCl)c2)c1-c1ccc(OCc2ccccc2)cc1F` [A350, N-{3-(6-Amino-5-(4-benzyloxy-2-fluoro-phenyl)-pyrimidin-4-yloxy}-phenyl)-2-chloro-acetamide] it was > 7.00; in that of `CC=CC(=O)[C@H]1CCC[C@@H](Nc2ncnc(N)c2-c2ccc(Oc3ccccc3)cc2)C1` [A146, 1-((1S,3R)-3-(6-Amino-5-(4-phenoxyphenyl)-pyrimidin-4-ylamino)-cyclohexyl)-but-2-en-1-one], > 7.00.
The value for `COCCN(C)C/C=C/C(=O)N1CCC(CNc2ncnc(N)c2-c2ccc(Oc3ccccc3)cc2)CC1` [A11, (E)-1-(4-(((6-amino-5-(4-phenoxyphenyl)pyrimidin-4-yl)amino)methyl)piperidin-1-yl)-4-((2-methoxyethyl)(methyl)amino)but-2-en-1-one] was < 6.00; that for `C=CC(=O)N1CCC(Nc2ncnc(N)c2-c2ccc(Oc3ccccc3)cc2)CC1` [A299, 1-(4-((6-amino-5-(4-phenoxyphenyl)pyrimidin-4-yl)amino)piperidin-1-yl)prop-2-en-1-one] was < 6.00.
In the case of `C=CC(=O)N1CCCC(COc2ncnc(N)c2-c2ccc(Oc3ccccc3)cc2)C1` (stereo not shown) [A17, 1-(3-(((6-amino-5-(4-phenoxyphenyl)pyrimidin-4-yl)oxy)methyl)piperidin-1-yl)prop-2-en-1-one] it was > 7.00; in that of `C=CC(=O)NCC1CCN(c2ncnc(N)c2-c2ccc(Oc3ccccc3)cc2)CC1` [A7, N-((1-(6-amino-5-(4-phenoxyphenyl)pyrimidin-4-yl)piperidin-4-yl)methyl)acrylamide], < 6.00.
Regarding `C=CC(=O)Nc1cccc(Oc2ncnc(N)c2-c2cncc(OC)c2)c1` [A291, N-(3-((6-amino-5-(5-methoxypyridin-3-yl)pyrimidin-4-yl)oxy)phenyl)acrylamide], the pIC50 was > 6.00.
With `C=CC(=O)N1CCO[C@H](COc2ncnc(N)c2-c2cnn(Cc3ccccc3)c2)C1` [A193, (S)-1-(2-(((6-amino-5-(1-benzyl-1H-pyrazol-4-yl)pyrimidin-4-yl)oxy)methyl)morpholino)prop-2-en-1-one], the pIC50 is < 6.00.
The value for `CCC(=O)Nc1cccc(Oc2ncnc(N)c2-c2ccc(OCc3ccccc3)cc2)c1` [A346, N-{3-[6-Amino-5-(4-benzyloxy-phenyl)-pyrimidin-4-yloxy]-phenyl}-propionamide] was > 7.00; that for `C=CC(=O)N1CCC(COc2ncnc(N)c2-c2ccc(Oc3ccccc3)cc2)CC1` [A338, 1-(4-(((6-amino-5-(4-phenoxyphenyl)pyrimidin-4-yl)oxy)methyl)piperidin-1-yl)prop-2-en-1-one] was > 6.00; that for `CC#CC(=O)c1cccc(CNc2ncnc(N)c2-c2ccc(Oc3ccccc3)cc2)c1` [A141, 1-(3-((6-Amino-5-(4-phenoxyphenyl)-pyrimidin-4-ylamino)-methyl)-phenyl)-but-2-yn-1-one] was > 6.00.
The value for `C=CC(=O)N1C[C@H](F)C[C@@H](Nc2ncnc(N)c2-c2ccc(Oc3ccccc3)cc2)C1` [A205, 1-((3R,5R)-3-((6-amino-5-(4-phenoxyphenyl)pyrimidin-4-yl)amino)-5-fluoropiperidin-1-yl)prop-2-en-1-one] was > 7.00.

For the origin of these results see patent US9580449B2, “Compositions and methods for the production of pyrimidine and pyridine compounds with BTK inhibitory activity” (Merck Patent GmbH, priority 2011, dated 2017).
